We go through 15 compounds from patent US20110004019A1, “Parakeratosis Inhibitor, Pore-Shrinking Agent, Or Rough Skin Inhibiting/Ameliorating Agent, And External Composition For Skin Containing The Same” (SHISEIDO COMPANY LTD., priority 2008, published 2011).

The test system of data set [1] is IL-1α production in human normal keratinocytes. Description: Inhibiting Effect of Increased Production of Inflammatory Cytokine Caused by Oleic Acid. In kind it is cell-based. To be noted: for IL-lα (pmol/ml, Mean ± S.D.): 8 hours. How it is done: LTD., were incubated using KGM culture medium in a 75 cm^2 flask for 3 days. The cells were trypsinized according to a normal method, collected, and then inoculated into a 24 well plate (Corning Inc.) so as to be 40,000 cells per 0.5 ml of KGM culture medium. After incubation for another 3 days, oleic acid, or oleic acid and test compound, were added thereto. […] As a control, ethanol was added instead of oleic acid. After 8 hours, each culture was collected, and the amount of IL-1α was measured with a quantification kit (from R&D systems).

In data set [2] the test system is back skin of hairless mouse (HR-1) applied with oleic acid. The data set can be described thus: Test for Parakeratosis-Inhibiting Effect (oleic acid applied on the back of hairless mouse; rough skin visual score and parakeratosis value). It is filed as in vivo. Conditions: for Parakeratosis value (Average for 5 mice): 3.0 mass % sample after 10 mass % oleic acid; for Parakeratosis value (Average for 5 mice) / Parakeratosis value (Average for 4 mice) / Visual observation value (Average for 4 mice): 3 days; for Parakeratosis value (Average for 5 mice) / Parakeratosis value (Average for 4 mice): control = 2.0; for effect of inhibiting parakeratosis (Tables 1 and 2) / effects of inhibiting rough skin such as desquamation and erythema caused by unsaturated fatty acids (text on Table 1): 3 mass %, hairless mouse, oleic acid; for Parakeratosis value (Average for 4 mice) / Visual observation value (Average for 4 mice): 3 mass % sample after 10 mass % oleic acid; for Parakeratosis value (Average for 4 mice): tape-stripped stratum corneum, hematoxylin, higher = more parakeratosis; for Visual observation value (Average for 4 mice): back of hairless mouse, rough skin (desquamation and erythema) score, control = 2.0, no roughness = 0.0. The method, then: 3 mass % test compound aqueous solution (containing 30 mass % ethanol) was primarily prepared as a sample solution. The pH was adjusted with hydrochloric acid or sodium hydroxide so as to be 7.0 to 7.5. When the solubility of test compound was low, the sample solution was prepared depending on the solubility.
100 μl of 10 mass % oleic acid solution (solvent: ethanol) was applied on the back of a hairless mouse (HR-1; Hoshino Laboratory Animals), and then 100 μl of the sample solution was applied thereon. […] In the evaluation, the condition of the skin on which the control (control aqueous solution) was applied set a score of 2.0 and the skin condition without roughness set a score of 0.0. Then, the skin condition was scored by visual observation in increments of 0.25 between them. At the same time, the stratum corneum at the back of the hairless mouse was peeled off with tape, the nuclei were stained by hematoxylin, and the degree of parakeratosis was observed and evaluated using a parakeratosis value within a range of 1.0 to 3.0 (in 0.25 increments). The higher the value is, the more the number of nucleated cell in the stratum corneum is, i.e., the more the parakeratosis is advanced.
The evaluation was conducted according to the plan which was approved in the in-house council on animal experiment, complying with Act on Welfare and Management of Animals and other related acts.

Data set [3] relates to cheek of sensory person (who has sensitive skin). The data set can be described thus: Sensory Irritation Test. It is filed as in vivo, human. Conditions: for Evaluation (sensory irritation): 1 mL on cheek, ten minutes; for sensory irritation (Tables 4 and 5): 3 mass %, test subject with sensitive skin. The method, then:
Then, the irritating sensation was evaluated every 30 seconds for ten minutes immediately after the application, and a final evaluation was reported (n=2). The evaluation of the irritating sensation was based on the following rating criteria in four levels, and each average rating was calculated to be classified by the following criteria.
3: The test cannot be continued because of extremely strong irritation such as tingly, burning, prickly, and itching sensation. 2: The use is intolerable because of strong irritation such as tingly, burning, prickly, and itching sensation. 1: The use is tolerable though slight irritation such as tingly, burning, prickly, and itching sensation is felt. 0: The irritation is not particularly felt.
A: Average rating is less than 0.2 B: Average rating is 0.2 or greater to less than 1.0 C: Average rating is 1.0 or greater to less than 2.0 D: Average rating is 2.0 or greater

The subject of data set [4] is back skin of hairless mice (HR-1) applied with oleic acid. Description: Test for Ameliorating Effect to Rough Skin Induced by Applying Oleic Acid (TEWL). It is filed as in vivo. Conditions: for TEWL value: 3 mass % sample after 10 mass % oleic acid, 3 days, average of four mice, higher = worse rough skin, control = 12.0; for ΔTEWL value compared with the control aqueous solution (text on Table 3): 3 mass %, hairless mice, oleic acid. How it is done: The difference was compared with the control (control aqueous solution), and the effect was determined. […] The TEWL was measured using TEWA Meter TM210 (Courage+Khazaka Electronic GmBH).
100 μl of 10 mass % oleic acid solution (solvent: ethanol) was applied on the back of hairless mice (HR-1, four mice per group), and then 100 μl of the sample solution was applied thereon. The day after this procedure was continued for 3 days, the TEWL value of the back was measured, and the average value of the four mice was calculated. The higher the TEWL value is, the worse rough skin becomes.

Setting [5] is: 3.0 mass % sample aqueous solution, n=2 (Table 5).
Where [6] appears, read: 3 mass % sample aqueous solution, n=2 (Table 4).

Consider `CCCCCCCC/C=C\CCCCCCCC(=O)O` [oleic acid, reference compound], for which the “IL-lα (pmol/ml, Mean ± S.D.)” value in data set [1] (10 μM oleic acid alone, solvent (ethanol) 4.7 ± 1.5) is 239.8 ± 1.3 pmol/mL.

As to `CCNC(=O)CC[C@H](NC(C)=O)C(=O)NCC` [N-acetyl-N′,N″-diethyl-L-glutamic acid-1,5-diamide], in data set [1] (10 μM oleic acid + 500 μM test compound, solvent 4.7 ± 1.5, p < 0.01 vs. oleic acid), the “IL-lα (pmol/ml, Mean ± S.D.)” value was 225.5 ± 3.2 pmol/mL. In addition, the “inhibition of the increased production of IL-1α caused by oleic acid (Table 6)” value in data set [1] (10 μM oleic acid, 500 μM (0.012%) compound) was “significantly inhibits the increased production of IL-1α”.

`N=C(N)NC(CCC(=O)O)C(=O)O` (racemic) [N-amidino-DL-glutamic acid]: in data set [2], the “Parakeratosis value (Average for 5 mice)” value is 1.2; the “effect of inhibiting parakeratosis (Tables 1 and 2)” value (shortened to “effect of inhibiting parakeratosis”) is given as “lowered the parakeratosis value”. For the same compound, the “Evaluation (sensory irritation)” value in data set [3] (setting [5]) is “A (Average rating is less than 0.2)”. The “sensory irritation (Tables 4 and 5)” value in data set [3] is listed as “had no problem in sensory irritation”.

For `NC(=O)NCCC[C@H](N)C(=O)O` [Citrulline, reference compound], in data set [2], the “Parakeratosis value (Average for 5 mice)” value came out at 2.0; the “effect of inhibiting parakeratosis” value was “did not show such effects”.

`CC(=O)N[C@@H](CCC(N)=O)C(=O)O` [N-acetyl-L-glutamine, reference compound]: in data set [2], the “Parakeratosis value (Average for 5 mice)” value was 1.9; the “Parakeratosis value (Average for 4 mice)” value was 1.9; the “Visual observation value (Average for 4 mice)” value (“Visual observation value” below) is 1.9; the “effect of inhibiting parakeratosis” value is “did not show such effects”. The “effects of inhibiting rough skin such as desquamation and erythema caused by unsaturated fatty acids (text on Table 1)” value (“effects of inhibiting rough skin such” below) in data set [2] is recorded as “did not show such effects”. In data set [4], the TEWL value is listed as 13.2 and the “ΔTEWL value compared with the control aqueous solution (text on Table 3)” value was “did not show such effects”.

In the case of `NCCCC(=O)O` [γ-aminobutyric acid, reference compound], the “Evaluation (sensory irritation)” value in data set [3] (setting [6]) and in data set [3] (setting [5]) was “C (Average rating is 1.0 or greater to less than 2.0)” each time. Besides, the “sensory irritation (Tables 4 and 5)” value in data set [3] was “resulted in giving sensory irritation”.

Consider `CNC(CCC(=O)O)C(=O)O` (racemic) [N-methyl-DL-glutamic acid], for which, in data set [2], the “Parakeratosis value (Average for 4 mice)” value is 0.9; the “Visual observation value” value came out at 0.9; the “effects of inhibiting rough skin such” value is “showed the effects of inhibiting rough skin”. Besides, in data set [4], the TEWL value came out at 7.9 and the “ΔTEWL value compared with the control aqueous solution (text on Table 3)” value was “significantly lowered the ΔTEWL value”. Further, in data set [3] (setting [6]), the “Evaluation (sensory irritation)” value was “A (Average rating is less than 0.2)”. The “sensory irritation (Tables 4 and 5)” value in data set [3] was “had no problem in sensory irritation”.

In the case of `N=C(N)N[C@@H](CCC(=O)O)C(=O)O` [N-amidino-L-glutamic acid], in data set [2], the “Parakeratosis value (Average for 5 mice)” value is recorded as 1.1; the “effect of inhibiting parakeratosis” value was “lowered the parakeratosis value”. Moreover, the “Evaluation (sensory irritation)” value in data set [3] (setting [5]) is listed as “A (Average rating is less than 0.2)”. Further, the “sensory irritation (Tables 4 and 5)” value in data set [3] is reported as “had no problem in sensory irritation”.

Take `N=C(N)N[C@@H](CCC(=O)[O-])C(=O)[O-].[Na+].[Na+]` [Sodium N-amidino-L-glutamate]: in data set [2], the “Parakeratosis value (Average for 5 mice)” value is reported as 1.1; the “effect of inhibiting parakeratosis” value is “lowered the parakeratosis value”. The “Evaluation (sensory irritation)” value in data set [3] (setting [5]) is reported as “A (Average rating is less than 0.2)”. The “sensory irritation (Tables 4 and 5)” value in data set [3] is on record as “had no problem in sensory irritation”.

In the case of `NC(=O)N[C@@H](CCC(=O)O)C(=O)O` [N-carbamoyl-L-glutamic acid], in data set [2], the “Parakeratosis value (Average for 4 mice)” value turned out to be 0.7; the “Visual observation value” value turned out to be 0.7; the “effects of inhibiting rough skin such” value is on record as “showed the effects of inhibiting rough skin”. Moreover, in data set [4], the TEWL value was 6.4 and the “ΔTEWL value compared with the control aqueous solution (text on Table 3)” value is given as “significantly lowered the ΔTEWL value”. Moreover, the “Evaluation (sensory irritation)” value in data set [3] (setting [6]) is given as “A (Average rating is less than 0.2)”. Further, the “sensory irritation (Tables 4 and 5)” value in data set [3] was “had no problem in sensory irritation”.

Regarding `O=C(O)CC[C@H](NC(=O)OCc1ccccc1)C(=O)O` [N-benzyloxycarbonyl-L-glutamic acid], in data set [2], the “Parakeratosis value (Average for 4 mice)” value came to 0.9; the “Visual observation value” value is given as 0.9; the “effects of inhibiting rough skin such” value is recorded as “showed the effects of inhibiting rough skin”. In data set [4], the TEWL value came to 6.8 and the “ΔTEWL value compared with the control aqueous solution (text on Table 3)” value was “significantly lowered the ΔTEWL value”. Besides, the “Evaluation (sensory irritation)” value in data set [3] (setting [6]) is on record as “A (Average rating is less than 0.2)”. Moreover, the “sensory irritation (Tables 4 and 5)” value in data set [3] is given as “had no problem in sensory irritation”.

In the case of `CC(=O)N[C@@H](CCC(=O)O)C(=O)O` [N-acetyl-L-glutamic acid, reference compound], in data set [2], the “Parakeratosis value (Average for 4 mice)” value was determined as 1.2; the “Visual observation value” value is 1.2; the “effect of inhibiting parakeratosis” value is given as “inferior to those of the compounds of the present invention”. In data set [4], the TEWL value came out at 10.1 and the “ΔTEWL value compared with the control aqueous solution (text on Table 3)” value was “inferior to that of the compounds of the present invention”.

For `Cl.N=C(N)N[C@@H](CCC(=O)O)C(=O)O` [N-amidino-L-glutamic acid hydrochloride], in data set [2], the “Parakeratosis value (Average for 5 mice)” value is 1.1; the “effect of inhibiting parakeratosis” value is listed as “lowered the parakeratosis value”. The “Evaluation (sensory irritation)” value in data set [3] (setting [5]) is on record as “A (Average rating is less than 0.2)”. In addition, the “sensory irritation (Tables 4 and 5)” value in data set [3] is given as “had no problem in sensory irritation”.

As for `CN[C@@H](CCC(=O)O)C(=O)O` [N-methyl-L-glutamic acid], in data set [2], the “Parakeratosis value (Average for 4 mice)” value amounted to 0.8; the “Visual observation value” value stood at 0.8; the “effects of inhibiting rough skin such” value is recorded as “showed the effects of inhibiting rough skin”. Moreover, in data set [4], the TEWL value was 6.4 and the “ΔTEWL value compared with the control aqueous solution (text on Table 3)” value is listed as “significantly lowered the ΔTEWL value”. Besides, the “Evaluation (sensory irritation)” value in data set [3] (setting [6]) is “A (Average rating is less than 0.2)”. For the same compound, the “sensory irritation (Tables 4 and 5)” value in data set [3] is listed as “had no problem in sensory irritation”.

With `N=C(N)N[C@H](CCC(=O)O)C(=O)O` [N-amidino-D-glutamic acid], in data set [2], the “Parakeratosis value (Average for 5 mice)” value is 1.2; the “effect of inhibiting parakeratosis” value is on record as “lowered the parakeratosis value”. Besides, the “Evaluation (sensory irritation)” value in data set [3] (setting [5]) is “A (Average rating is less than 0.2)”. For the same compound, the “sensory irritation (Tables 4 and 5)” value in data set [3] is “had no problem in sensory irritation”.
